Data on three molecules can be found in ChEMBL document CHEMBL4808233, “Discovery and evaluation of non-basic small molecule modulators of the atypical chemokine receptor CXCR7” (Bioorg Med Chem Lett, 2021).

Data set [1] is described as follows: Tmax in C57BL6 mouse at 10 mg/kg, po. It counts as ADME, organism-based. As to conditions: in vivo.
Data set [2] in a line: Tmax in C57BL6 mouse at 5 mg/kg, sc. As to conditions: in vivo. It counts as ADME, organism-based.
The nature of data set [3]: Cmax in C57BL6 mouse at 10 mg/kg, po. As to conditions: in vivo. Details: route oral, dose 10 mg/kg. It counts as ADME, organism-based.
The nature of data set [4]: Cmax in C57BL6 mouse at 5 mg/kg, sc. Format: ADME, organism-based. Further details: route subcutaneous, dose 5 mg/kg. To be noted: in vivo.
Data set [5] is described as follows: AUC infinity in C57BL6 mouse at 2 mg/kg, iv. It counts as ADME, organism-based. Details: time infinity, route intravenous, dose 2 mg/kg. As to conditions: in vivo.
A short description of data set [6]: AUC infinity in C57BL6 mouse at 10 mg/kg, po. It counts as ADME, organism-based. Details: route oral, time infinity, dose 10 mg/kg. As to conditions: in vivo.
Data set [7] can be described thus: AUC infinity in C57BL6 mouse at 2 mg/kg, sc. It counts as ADME, organism-based. Details: time infinity, route subcutaneous, dose 2 mg/kg. To be noted: in vivo.
Data set [8] can be described thus: Half life in C57BL6 mouse at 2 mg/kg, iv. To be noted: in vivo. Format: ADME, organism-based.
The target in data set [9] is Atypical chemokine receptor 3 (Mus musculus, UniProt P56485). Kind of data set: Binding affinity to mouse CXCR7.
A short description of data set [10]: Half life in C57BL6 mouse at 10 mg/kg, po. Format: ADME, organism-based. As to conditions: in vivo.
Data set [11] in a line: Half life in C57BL6 mouse at 5 mg/kg, sc. Format: ADME, organism-based. As to conditions: in vivo.
The nature of data set [12]: Volume of distribution at steady state in C57BL6 mouse at 2 mg/kg, iv. It counts as ADME, organism-based. As to conditions: in vivo, read-out: Vdss.
A short description of data set [13]: Oral bioavailability in C57BL6 mouse at 10 mg/kg. Format: ADME, organism-based. To be noted: in vivo.
A short description of data set [14]: Bioavailability in C57BL6 mouse at 5 mg/kg, sc. It counts as ADME, organism-based. To be noted: in vivo.
Data set [15] can be described thus: Protein binding in C57BL6 mouse plasma assessed as unbound fraction. It counts as ADME, cell-free.
Data set [16] can be described thus: Unbound cmax in C57BL6 mouse. It counts as ADME. To be noted: in vivo.
Data set [17] is described as follows: Lipophilicity, logD of the compound at pH 7.4 by shake flask method. Format: physicochemical. As to conditions: buffer.

As usually defined, the Tmax is the time from dosing to the highest level. By Cmax is commonly meant the maximum level reached in the sampled fluid or tissue. One may read the AUC(0-inf) as the area under the concentration-time curve extrapolated to infinity. A low value points to low exposure. As a reminder, the half-life is the time in which the quantity being followed falls by half. Lower therefore signals fast loss. The pKi is the negative decadic logarithm of the Ki, by convention in mol/L. Higher therefore signals a small Ki. A word on the bioavailability: it is dose-corrected exposure relative to a reference, in per cent. A higher bioavailability goes with much systemic uptake. As a reminder, the fraction unbound is free concentration divided by total concentration. In general, logD refers to lipophilicity at a set pH, counting ionised and neutral species. Read a low logD as lower lipophilicity.

The structures appear in SMILES notation. pKi: −log10 of the molar value.

Atypical chemokine receptor 3, sequence (P56485 whole entry): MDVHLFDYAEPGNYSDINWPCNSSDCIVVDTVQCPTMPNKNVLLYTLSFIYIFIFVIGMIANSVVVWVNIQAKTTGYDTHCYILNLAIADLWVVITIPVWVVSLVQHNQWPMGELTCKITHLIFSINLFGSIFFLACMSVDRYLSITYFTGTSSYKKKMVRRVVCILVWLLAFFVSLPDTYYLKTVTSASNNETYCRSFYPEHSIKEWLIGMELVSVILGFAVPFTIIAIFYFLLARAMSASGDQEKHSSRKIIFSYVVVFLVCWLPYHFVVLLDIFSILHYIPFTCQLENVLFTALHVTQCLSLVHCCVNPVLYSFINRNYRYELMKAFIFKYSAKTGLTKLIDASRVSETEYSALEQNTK

Turning to `CCN(C)C(=O)N1C[C@@H]2[C@H](C1)[C@H]2C(=O)N[C@H]1CCN(c2nccn3ccnc23)C1`, the time of peak concentration (Tmax) in data set [1] turned out to be 4.8 min; in [2] it was 15 min. In addition, the Cmax came to 185 ng/mL in data set [3] and 1550 ng/mL in data set [4]. In addition, the total exposure AUC(0-inf) in [5] is 864 ng·h/mL; in data set [6] it was 199 ng·h/mL; in [7], 1530 ng·h/mL. The half-life in [8] is 12 min; in data set [10], 78 min; in data set [11], 30 min. This molecule had a pKi in data set [9] of 6.81. The Vd in [12] stood at 0.3 L/kg. Further, the bioavailability worked out at 5% in [13] and 71% in data set [14]. For the same molecule, the unbound share (fraction unbound) in data set [15] came out at 0.4. The molecule further gave a fCmax in data set [16] of 1.56 µM.
The molecule `COc1ccc2cccnc2c1N1CCCN(Cc2csc(-c3ccccc3)n2)CC1` had a logD in data set [17] of 3.4.
The same measure, in the same setting: in the case of `CCc1ccn2ccnc2c1N1CCCN(CC2CCN(C(=O)[C@H]3C[C@@H]4CC[C@H]3O4)CC2)CC1` it was 0.7.
